Molecular target: GDP-bound KRAS protein (aa 1-169), containing both G12C and C118A amino acid substitutions (Homo sapiens (Human), UniProt P01116, C118A/G12C)
Experiment: Coupled nucleotide exchange assay (SOS-mediated nucleotide exchange, AlphaScreen)
Assay type: biochemical
Details: 5 min compound pre-incubation; for IC50: read-out: Coupled exchange IC50 (5 min; μM)

Sequence of GDP-bound KRAS protein (aa 1-169), containing both G12C and C118A amino acid substitutions (P01116 other isoform, or with tags, fused parts or gaps G12C/C118A): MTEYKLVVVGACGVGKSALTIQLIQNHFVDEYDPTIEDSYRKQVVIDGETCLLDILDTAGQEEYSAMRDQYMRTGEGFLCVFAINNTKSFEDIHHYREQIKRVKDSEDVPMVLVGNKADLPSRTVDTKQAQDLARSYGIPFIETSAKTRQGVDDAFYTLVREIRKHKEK

SMILES | IC50 | Coupled exchange IC50 (5 min; μM)
C=CC(=O)N1[C@H](C)CN(c2nc(=O)n(-c3c(C)ccnc3C(C)C)c3nc(-c4ccccc4F)c(Cl)nc23)C[C@@H]1C (single isomer, unassigned) [Example 224-2] | 1.29 µM | 
C=CC(=O)N1CCN(c2nc(=O)n(CC(C)(C)C#N)c3nc(-c4ccccc4F)c(Cl)cc23)CC1 [Example 106-10, 3-[6-Chloro-7-(2-fluorophenyl)-2-oxo-4-(4-prop-2-enoylpiperazin-1-yl)pyrido[2,3-d]pyrimidin-1-yl]-2,2-dimethyl-propanenitrile] | 12.1 µM | 
C=CC(=O)N1C[C@H](C)N(c2nc(=O)n(-c3c(C)ccnc3C(C)C)c3nc(-c4cc(OC)cc5ccccc45)c(Cl)cc23)C[C@H]1C (atropisomer, axis not shown; (M)) [Example 92-70, (M)-6-Chloro-4-[(2S,5R)-2,5-dimethyl-4-prop-2-enoyl-piperazin-1-yl]-1-(2-isopropyl-4-methyl-3-pyridyl)-7-(3-methoxy-1-naphthyl)pyrido [2,3-d]pyrimidin-2-one] | 0.6 µM | 
C=CC(=O)N1C[C@H](C)N(c2nc(=O)n(-c3c(C)cc(C4CC4)nc3C(C)C)c3nc(-c4ccccc4F)c(Cl)cc23)C[C@H]1C (single isomer, unassigned) [Example 164-1] |  | 0.066 µM
C=CC(=O)N1C[C@H](C)N(c2nc(=O)n(-c3c(C(C)C)cccc3S(C)(=O)=O)c3nc(-c4ccccc4F)c(Cl)cc23)C[C@H]1C (single isomer, unassigned) [Example 208-1] | 2.56 µM | 
C=CC(=O)N1C[C@H](C)N(c2nc(=O)n(-c3c(C(C)C)cccc3[S+](C)[O-])c3nc(-c4ccccc4F)c(Cl)cc23)C[C@H]1C (single isomer, unassigned) [Example 209-2] |  | 1.34 µM
C=CC(=O)N1C[C@H](C)N(c2nc(=O)n(-c3c(C)cc(C4CC4)nc3C(C)C)c3nc(-c4ccccc4F)c(Cl)cc23)C[C@H]1C (single isomer, unassigned) [Example 164-2] |  | 3.44 µM
C=CC(=O)N1C[C@H](C)N(c2nc(=O)n(-c3c(C)ccnc3C(C)C)c3nc(-c4ccccc4C(=O)O)c(F)cc23)C[C@H]1C (atropisomer, axis not shown; (M)) [Example 94-15, (M)-2-[4-[(2S,5R)-2,5-Dimethyl-4-prop-2-enoyl-piperazin-1-yl]-6-fluoro-1-(2-isopropyl-4-methyl-3-pyridyl)-2-oxo-pyrido[2,3-a]pyrimidin-7-yl]benzoic acid] | 0.963 µM | 
C=CC(=O)N1C[C@H](C)N(c2nc(=O)n(-c3c(CN4CCCC4)cccc3C(C)C)c3nc(-c4ccccc4F)c(Cl)cc23)C[C@H]1C (single isomer, unassigned) [Example 80-10-1] | 2.04 µM | 
C=CC(=O)N1C[C@H](C)N(c2nc(=O)n(-c3c(C)ccnc3C(C)C)c3nc(CCC)c(Cl)cc23)C[C@H]1C (atropisomer, axis not shown; (M)) [Example 95-6, (M)-6-chloro-4-[(2S,5R)-2,5-dimethyl-4-prop-2-enoyl-piperazin-1-yl]-1-(2-isopropyl-4-methyl-3-pyridyl)-7-propyl-pyrido[2,3-d]pyrimidin-2-one] | 0.823 µM | 
C=CC(=O)N1C[C@H](C)N(c2nc(=O)n(-c3c(C)ccnc3C(C)C)c3nc(-c4ccsc4)c(Cl)cc23)C[C@H]1C (atropisomer, axis not shown; (M)) [Example 92-50, (M)-6-Chloro-4-[(2S,5R)-2,5-dimethyl-4-prop-2-enoyl-piperazin-1-yl]-1-(2-isopropyl-4-methyl-3-pyridyl)-7-(3-thienyl)pyrido[2,3-d]pyrimidin-2-one] | 1.1 µM | 
C=CC(=O)N1C[C@H](C)N(c2nc(=O)n3c4nc(c(Cl)cc24)-c2ccccc2C/C=C\Cc2ccccc2-3)C[C@H]1C (single isomer, unassigned) [Example 146-3-3] | 57.3 µM | 

— US11285156B2, “Substituted piperazines as KRAS G12C inhibitors” (Amgen Inc., priority 2018, dated 2022)
